Test results as given in PubChem BioAssay AID1963831 (Molecular Pharmacology Branch, DTP, NCI, 2024).

System: 889142-216-R-J1-PDC complex spheroid viability
Assay: Anticancer human tumor 889142-216-R-J1-PDC patient-derived bladder carcinoma cell line growth inhibition [POLQ]
Conditions: for IC50: curve of first compound; for viability, T/C: stronger effect = lower value
Method in brief: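 Three-cell-type spheroids modelling solid tumor plus stroma served as the readout system; POL inhibitors were tested individually and in combination, concentration ranges set by clinical Cmax where known.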

[1] = second compound 0.0316 µM, first compound 0.0316 µM
[2] = second compound 0.0316 µM, first compound 0.1 µM
[3] = second compound 0.0316 µM, first compound 0.316 µM
[4] = second compound 0.0316 µM, first compound 1 µM
[5] = second compound 0.0316 µM, first compound 3.16 µM
[6] = second compound 0.0316 µM, first compound 10 µM
[7] = second compound 0.1 µM, first compound 0.0316 µM
[8] = second compound 0.1 µM, first compound 0.1 µM
[9] = second compound 0.1 µM, first compound 0.316 µM
[10] = second compound 0.1 µM, first compound 1 µM
[11] = second compound 0.1 µM, first compound 3.16 µM
[12] = second compound 0.1 µM, first compound 10 µM
[13] = second compound 0.316 µM, first compound 0.0316 µM
[14] = second compound 0.316 µM, first compound 0.1 µM
[15] = second compound 0.316 µM, first compound 0.316 µM
[16] = second compound 0.316 µM, first compound 1 µM
[17] = second compound 0.316 µM, first compound 3.16 µM
[18] = second compound 0.316 µM, first compound 10 µM
[19] = second compound 1 µM, first compound 0.0316 µM
[20] = second compound 1 µM, first compound 0.1 µM
[21] = second compound 1 µM, first compound 0.316 µM
[22] = second compound 1 µM, first compound 1 µM
[23] = second compound 1 µM, first compound 3.16 µM
[24] = second compound 1 µM, first compound 10 µM
[25] = second compound 3.16 µM, first compound 0.0316 µM
[26] = second compound 3.16 µM, first compound 0.1 µM
[27] = second compound 3.16 µM, first compound 0.316 µM
[28] = second compound 3.16 µM, first compound 1 µM
[29] = second compound 3.16 µM, first compound 3.16 µM
[30] = second compound 3.16 µM, first compound 10 µM
[31] = second compound 10 µM, first compound 0.0316 µM
[32] = second compound 10 µM, first compound 0.1 µM
[33] = second compound 10 µM, first compound 0.316 µM
[34] = second compound 10 µM, first compound 1 µM
[35] = second compound 10 µM, first compound 3.16 µM
[36] = second compound 10 µM, first compound 10 µM
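Further: spheroids exposed to compounds for seven days.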
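Wherever viability, T/C is given: 100% = DMSO vehicle control viability.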

For `CC(=O)O[C@H]1C(=O)[C@@]2(C)[C@H]([C@H](OC(=O)c3ccccc3)[C@]3(O)C[C@H](OC(=O)[C@H](O)[C@@H](NC(=O)c4ccccc4)c4ccccc4)C(C)=C1C3(C)C)[C@]1(OC(C)=O)CO[C@@H]1C[C@@H]2O` + COC1C(OC(N)=O)C(O)C(Oc2ccc3c(O)c(NC(=O)c4ccc(O)c(CC=C(C)C)c4)c(=O)oc3c2C)OC1(C)C, the IC50 (second compound 0.0316 µM) was < 0.00949 µM, the IC50 (second compound 0.1 µM) was < 0.00949 µM and the IC50 (second compound 0.316 µM) was < 0.00949 µM. The IC50 (second compound 1 µM) was < 0.00949 µM, the IC50 (second compound 3.16 µM) was < 0.00949 µM and the IC50 (second compound 10 µM) was < 0.00949 µM. The viability, T/C (second compound 0.0316 µM, first compound 0.00949 µM) was 42%, the viability, T/C (second compound 0.0316 µM, first compound 0.03 µM) was 37.3% and the viability, T/C (second compound 0.0316 µM, first compound 0.0949 µM) was 36.2%. It also gave a viability, T/C (second compound 0.0316 µM, first compound 0.3 µM) of 35%, a viability, T/C (second compound 0.0316 µM, first compound 0.949 µM) of 40.6% and a viability, T/C (second compound 0.0316 µM, first compound 3 µM) of 43%. The viability, T/C (second compound 0.1 µM, first compound 0.00949 µM) was 40%, the viability, T/C (second compound 0.1 µM, first compound 0.03 µM) was 29.9% and the viability, T/C (second compound 0.1 µM, first compound 0.0949 µM) was 40.6%. It also gave a viability, T/C (second compound 0.1 µM, first compound 0.3 µM) of 34.2%, a viability, T/C (second compound 0.1 µM, first compound 0.949 µM) of 37.4% and a viability, T/C (second compound 0.1 µM, first compound 3 µM) of 38.5%. It also gave a viability, T/C (second compound 0.316 µM, first compound 0.00949 µM) of 38.3%, a viability, T/C (second compound 0.316 µM, first compound 0.03 µM) of 37.2% and a viability, T/C (second compound 0.316 µM, first compound 0.0949 µM) of 41.3%. For the same compound, the viability, T/C (second compound 0.316 µM, first compound 0.3 µM) was 32.9%, the viability, T/C (second compound 0.316 µM, first compound 0.949 µM) was 34% and the viability, T/C (second compound 0.316 µM, first compound 3 µM) was 37.4%. For the same compound, the viability, T/C (second compound 1 µM, first compound 0.00949 µM) was 39.9%, the viability, T/C (second compound 1 µM, first compound 0.03 µM) was 40% and the viability, T/C (second compound 1 µM, first compound 0.0949 µM) was 43.9%. The viability, T/C (second compound 1 µM, first compound 0.3 µM) was 37.5%, the viability, T/C (second compound 1 µM, first compound 0.949 µM) was 35.3% and the viability, T/C (second compound 1 µM, first compound 3 µM) was 39.7%. The viability, T/C (second compound 3.16 µM, first compound 0.00949 µM) was 39.1%, the viability, T/C (second compound 3.16 µM, first compound 0.03 µM) was 38.1% and the viability, T/C (second compound 3.16 µM, first compound 0.0949 µM) was 39%. For the same compound, the viability, T/C (second compound 3.16 µM, first compound 0.3 µM) was 39.7%, the viability, T/C (second compound 3.16 µM, first compound 0.949 µM) was 41.2% and the viability, T/C (second compound 3.16 µM, first compound 3 µM) was 40.4%. It also gave a viability, T/C (second compound 10 µM, first compound 0.00949 µM) of 41.1%, a viability, T/C (second compound 10 µM, first compound 0.03 µM) of 38.1% and a viability, T/C (second compound 10 µM, first compound 0.0949 µM) of 40.4%. It also gave a viability, T/C (second compound 10 µM, first compound 0.3 µM) of 45.2%, a viability, T/C (second compound 10 µM, first compound 0.949 µM) of 38.5% and a viability, T/C (second compound 10 µM, first compound 3 µM) of 39.5%.
`COc1ccc([C@@H](O)c2cc(-c3ncnc4cc(N5CCOCC5)ccc34)c(F)cc2Cl)nn1` + Cc1cccc(N(C)C(=O)C2C(O)CCN2c2nc(C)cc(C(F)(F)F)c2C#N)c1 gave an IC50 (second compound 0.0316 µM) of 3.76 µM, an IC50 (second compound 0.1 µM) of 2.71 µM and an IC50 (second compound 0.316 µM) of 2.26 µM. The IC50 (second compound 1 µM) was 2.85 µM, the IC50 (second compound 3.16 µM) was 3.89 µM and the IC50 (second compound 10 µM) was 1.85 µM. For the same compound, the viability, T/C [1] was 123%, the viability, T/C [2] was 81.2% and the viability, T/C [3] was 102%. It also gave a viability, T/C [4] of 69.6%, a viability, T/C [5] of 47.6% and a viability, T/C [6] of 36.8%. The viability, T/C [7] was 99.5%, the viability, T/C [8] was 98.8% and the viability, T/C [9] was 97.7%. It also gave a viability, T/C [10] of 67.1%, a viability, T/C [11] of 51.1% and a viability, T/C [12] of 40.9%. The viability, T/C [13] was 106%, the viability, T/C [14] was 103% and the viability, T/C [15] was 90.3%. It also gave a viability, T/C [16] of 59.6%, a viability, T/C [17] of 49.7% and a viability, T/C [18] of 35.5%. It also gave a viability, T/C [19] of 103%, a viability, T/C [20] of 112% and a viability, T/C [21] of 90.3%. For the same compound, the viability, T/C [22] was 66.7%, the viability, T/C [23] was 52.5% and the viability, T/C [24] was 35.9%. It also gave a viability, T/C [25] of 94.8%, a viability, T/C [26] of 79.8% and a viability, T/C [27] of 64.4%. The viability, T/C [28] was 70%, the viability, T/C [29] was 58.6% and the viability, T/C [30] was 35.2%. It also gave a viability, T/C [31] of 91.2%, a viability, T/C [32] of 80.5% and a viability, T/C [33] of 63.6%. The viability, T/C [34] was 53.6%, the viability, T/C [35] was 53.6% and the viability, T/C [36] was 28.9%.
For `O=C(c1cc(Cc2n[nH]c(=O)c3ccccc23)ccc1F)N1CCN(C(=O)C2CC2)CC1` + COC1C(OC(N)=O)C(O)C(Oc2ccc3c(O)c(NC(=O)c4ccc(O)c(CC=C(C)C)c4)c(=O)oc3c2C)OC1(C)C, the IC50 (second compound 0.0316 µM) was > 10 µM, the IC50 (second compound 0.1 µM) was > 10 µM and the IC50 (second compound 0.316 µM) was > 10 µM. For the same compound, the IC50 (second compound 1 µM) was > 10 µM, the IC50 (second compound 3.16 µM) was > 10 µM and the IC50 (second compound 10 µM) was > 10 µM. For the same compound, the viability, T/C [1] was 93%, the viability, T/C [2] was 92.2% and the viability, T/C [3] was 77.2%. It also gave a viability, T/C [4] of 103%, a viability, T/C [5] of 71% and a viability, T/C [6] of 68.6%. It also gave a viability, T/C [7] of 101%, a viability, T/C [8] of 117% and a viability, T/C [9] of 104%. For the same compound, the viability, T/C [10] was 109%, the viability, T/C [11] was 80.5% and the viability, T/C [12] was 83.5%. For the same compound, the viability, T/C [13] was 94.4%, the viability, T/C [14] was 111% and the viability, T/C [15] was 114%. It also gave a viability, T/C [16] of 102%, a viability, T/C [17] of 95.5% and a viability, T/C [18] of 72%. It also gave a viability, T/C [19] of 122%, a viability, T/C [20] of 116% and a viability, T/C [21] of 109%. For the same compound, the viability, T/C [22] was 79.3%, the viability, T/C [23] was 82.5% and the viability, T/C [24] was 65.5%. It also gave a viability, T/C [25] of 123%, a viability, T/C [26] of 109% and a viability, T/C [27] of 104%. The viability, T/C [28] was 101%, the viability, T/C [29] was 78.4% and the viability, T/C [30] was 75.5%. The viability, T/C [31] was 129%, the viability, T/C [32] was 106% and the viability, T/C [33] was 84.4%. For the same compound, the viability, T/C [34] was 84.8%, the viability, T/C [35] was 103% and the viability, T/C [36] was 77.9%.
For `O=C(Nc1ccc(O)c(NS(=O)(=O)c2ccc(F)cc2)c1)c1ccc(-c2ccccc2)cc1` + Nc1ccc(C#CCN(C(=O)Cc2ncc(C(F)(F)F)cc2C(F)(F)F)c2ccc(F)cc2)nn1, the IC50 (second compound 0.0316 µM) was > 10 µM, the IC50 (second compound 0.1 µM) was > 10 µM and the IC50 (second compound 0.316 µM) was > 10 µM. For the same compound, the IC50 (second compound 1 µM) was > 10 µM, the IC50 (second compound 3.16 µM) was > 10 µM and the IC50 (second compound 10 µM) was > 10 µM. The viability, T/C [1] was 118%, the viability, T/C [2] was 101% and the viability, T/C [3] was 83.9%. For the same compound, the viability, T/C [4] was 110%, the viability, T/C [5] was 127% and the viability, T/C [6] was 72%. It also gave a viability, T/C [7] of 104%, a viability, T/C [8] of 90.7% and a viability, T/C [9] of 94.1%. It also gave a viability, T/C [10] of 126%, a viability, T/C [11] of 129% and a viability, T/C [12] of 87.3%. The viability, T/C [13] was 96.2%, the viability, T/C [14] was 82.1% and the viability, T/C [15] was 110%. The viability, T/C [16] was 105%, the viability, T/C [17] was 134% and the viability, T/C [18] was 73%. For the same compound, the viability, T/C [19] was 117%, the viability, T/C [20] was 84.7% and the viability, T/C [21] was 97.7%. For the same compound, the viability, T/C [22] was 148%, the viability, T/C [23] was 119% and the viability, T/C [24] was 78.4%. The viability, T/C [25] was 105%, the viability, T/C [26] was 83.4% and the viability, T/C [27] was 135%. For the same compound, the viability, T/C [28] was 139%, the viability, T/C [29] was 127% and the viability, T/C [30] was 64.1%. The viability, T/C [31] was 110%, the viability, T/C [32] was 88% and the viability, T/C [33] was 118%. It also gave a viability, T/C [34] of 113%, a viability, T/C [35] of 101% and a viability, T/C [36] of 81%.
